1 molecule from ChEMBL document CHEMBL2074570, “The farnesyl protein transferase inhibitor SCH66336 is a potent inhibitor of MDR1 product P-glycoprotein” (Cancer Res, 2001) can be followed below.

The target of this test is ATP-dependent translocase ABCB1 (Homo sapiens, UniProt P08183). Put plainly: TP_TRANSPORTER: inhibition of DNR efflux (DNR: ? uM) in MDR1-expressing NIH3T3 cells. The class given is functional, cell-based.
Chain of ATP-dependent translocase ABCB1 (P08183 whole entry): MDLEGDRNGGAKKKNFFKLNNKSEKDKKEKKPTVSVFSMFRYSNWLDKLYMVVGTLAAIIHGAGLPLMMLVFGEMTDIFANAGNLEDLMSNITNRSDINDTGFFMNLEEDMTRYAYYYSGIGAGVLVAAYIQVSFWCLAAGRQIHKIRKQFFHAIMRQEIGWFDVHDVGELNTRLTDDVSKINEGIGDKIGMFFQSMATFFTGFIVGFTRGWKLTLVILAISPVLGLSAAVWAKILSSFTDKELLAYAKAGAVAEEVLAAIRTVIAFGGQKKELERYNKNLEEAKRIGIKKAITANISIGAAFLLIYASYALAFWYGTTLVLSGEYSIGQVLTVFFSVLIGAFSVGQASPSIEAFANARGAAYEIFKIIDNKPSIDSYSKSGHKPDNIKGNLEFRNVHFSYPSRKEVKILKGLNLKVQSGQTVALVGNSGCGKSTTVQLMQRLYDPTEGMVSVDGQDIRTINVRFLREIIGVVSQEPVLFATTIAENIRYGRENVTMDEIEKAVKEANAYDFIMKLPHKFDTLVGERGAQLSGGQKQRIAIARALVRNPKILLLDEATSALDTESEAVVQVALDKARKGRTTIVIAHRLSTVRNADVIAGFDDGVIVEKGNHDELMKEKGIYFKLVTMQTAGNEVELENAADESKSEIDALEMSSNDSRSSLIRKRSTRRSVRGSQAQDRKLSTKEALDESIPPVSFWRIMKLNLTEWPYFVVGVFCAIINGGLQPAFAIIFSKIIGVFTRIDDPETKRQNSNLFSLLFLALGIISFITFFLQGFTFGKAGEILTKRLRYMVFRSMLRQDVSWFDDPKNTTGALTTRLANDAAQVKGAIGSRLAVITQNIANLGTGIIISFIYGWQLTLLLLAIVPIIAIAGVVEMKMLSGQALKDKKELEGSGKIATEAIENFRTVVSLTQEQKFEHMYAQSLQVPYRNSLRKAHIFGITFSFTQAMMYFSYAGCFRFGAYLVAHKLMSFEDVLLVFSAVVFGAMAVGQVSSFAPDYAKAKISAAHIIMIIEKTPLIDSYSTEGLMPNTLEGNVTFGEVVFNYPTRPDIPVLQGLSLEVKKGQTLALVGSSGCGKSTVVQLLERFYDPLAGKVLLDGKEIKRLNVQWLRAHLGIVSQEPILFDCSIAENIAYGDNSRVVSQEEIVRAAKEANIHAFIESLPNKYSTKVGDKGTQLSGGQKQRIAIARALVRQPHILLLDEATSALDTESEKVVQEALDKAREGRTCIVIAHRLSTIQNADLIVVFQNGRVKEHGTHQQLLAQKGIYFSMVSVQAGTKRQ

In the case of `NC(=O)N1CCC(CC(=O)N2CCC([C@H]3c4ncc(Br)cc4CCc4cc(Cl)cc(Br)c43)CC2)CC1` [LONAFARNIB], half-maximal inhibition (IC50) required 2700 nM.
